Measured values as given in US20070004715A1, “Novel spiro-quinuclidinyl derivatives for the treatment of central nervous system disorders” (priority 2005, published 2007).
Where a name gives a salt, the structure may show the parent alone. Read-outs that look alike come from different tables or passages of the source.

How the values were obtained:
[1] = test system: Synaptosomes from guinea pig hippocampus; details: peptide at 100 μM; 'known to' inhibit release; cited from earlier work
[2] = target: T1, M1 muscarinic receptor (M1 human CHO receptor membranes) (Homo sapiens, UniProt P11229); experiment: M1 Muscarinic Receptor % Inhibition Assay (SPA, tritiated scopolamine); format: binding
T1 construct: purchased Amersham 6110503; host or cells: CHO cell membranes
T1 sequence (P11229 1-460): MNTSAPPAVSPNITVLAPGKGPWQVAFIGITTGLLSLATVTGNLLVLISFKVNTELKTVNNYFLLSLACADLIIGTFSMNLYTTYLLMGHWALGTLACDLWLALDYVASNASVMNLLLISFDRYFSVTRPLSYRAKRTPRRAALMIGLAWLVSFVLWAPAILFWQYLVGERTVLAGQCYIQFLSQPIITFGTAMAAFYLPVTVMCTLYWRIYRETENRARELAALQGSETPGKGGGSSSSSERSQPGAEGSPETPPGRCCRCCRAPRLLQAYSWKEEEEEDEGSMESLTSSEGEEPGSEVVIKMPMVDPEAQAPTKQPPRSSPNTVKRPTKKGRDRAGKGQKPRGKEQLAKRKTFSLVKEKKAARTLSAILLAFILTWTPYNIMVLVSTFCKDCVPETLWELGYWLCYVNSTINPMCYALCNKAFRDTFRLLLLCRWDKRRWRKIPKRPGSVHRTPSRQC

[3] = target: T2, fluo-Aβ1-40 (Homo sapiens, UniProt P05067); experiment: Aβ Aggregation Assay (Synthaloid plates, fluo-Aβ1-40); format: biochemical; details: 10 μM test compound, 100 nM fluo-Aβ1-40, 2.5 hr at room temperature; higher % = greater effectiveness at preventing aggregation
T2 construct: added 100 nM of fluo-Aβ1-40 in 100 μl
T2 sequence (P05067 672-711): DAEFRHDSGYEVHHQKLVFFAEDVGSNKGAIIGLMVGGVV
Method: Aβs are known to form aggregates leading to the formation of amyloid plaques that are characteristic of Alzheimer's disease.
This aggregation assay was validated using both ^125I-Aβ1-40 and fluo-Aβ1-40 in a buffer containing 50 mM HEPES, pH 7.4, 0.1% BSA, 10% FCS and protease inhibitors.
To each well of a 96-well Synthaloid plate was added 100 nM of fluo-Aβ1-40 in 100 μl. To each well was then added 10 μM of test compound. The plate was then allowed to incubate for 2.5 hr at room temperature. At the end of the incubation, unbound protein in the wells was removed by three washes using the buffer as described above. The amount of bound protein (which represents the amount of Aβ aggregation) was measured either by fluorescence measurements.
Higher fluorescence values relative to vehicle wells were interpreted as an indication of greater Aβ aggregation. […] Higher % values in the data in Table 4 below, below indicates greater effectiveness at preventing aggregation.
(§1) Both the Aβ aggregation assay as described in Example 55, particularly as run using the ^125I-Aβ1-40, and the % inhibition of AcH release assay as described in Example 56, were highly variable on a run-to-run basis. However, the relative activities of the tested compounds were reproducible.

[4] = test system: Synaptosomes from guinea pig hippocampus; experiment: % Inhibition of AcH Release Assay (K+-evoked 3H-acetylcholine release); format: cell-based; details: synaptosomes pre-treated with 10 μM test compound prior to 65 mM K+ stimulation
Method: Synaptosomes from guinea pig hippocampus were incubated with 0.1 μM ^3H-choline and then subjected to repeated washes with buffer to remove unincorporated ^3H-choline. The synaptosomes were then treated with 65 mM K^+ for 30 seconds to elicit 3H-acetylcholine release.
To determine if a test compound will inhibit acetylcholine release, the synaptosomes were pre-treated with 10 μM of the test compound prior to the K+ stimulation. The decrease or increase in acetylcholine release was then measured by superfusion.
as §1

Compound	Inhibition of acetylcholine release [1] [%]	% Inhibition @1 μM ([2]; 1 μM compound) [%]	% Inhibition @10 μM ([2]; 10 μM compound) [%]	Aβ aggregation inhibition (%) [3] [%]	Inhibition of acetylcholine release [4] [%]
Aβ1-42: β-amyloid1-42 peptide, forms oligomers, fibrils and amyloid plaques	33				
Cc1ccc(N2C(=N)CC3(CN4CCC3CC4)OC2=O)cc1Cl (centres unmarked) [Compound 109, 3′-(3-chloro-4-methylphenyl)-quinuclidine-3-spiro-4′-iminooxan-2-ones trifluoroacetate salt]		90	98	80	33
Aβ1-40: β-amyloid peptide 1-40, known to inhibit acetylcholine release from synaptosomes	33				
N=C1CC2(CN3CCC2CC3)OC(=O)N1c1cccc(Cl)c1 (centres unmarked) [Compound 108, 3′-(3-chlorophenyl)-quinuclidine-3-spiro-4′-iminooxan-2-ones trifluoroacetate salt]				70	63
O=C1OC2(CN3CCC2CC3)C(=O)N1c1cc(Cl)cc(Cl)c1 (centres unmarked) [Compound 7, 3′-(3,5-dichlorophenyl)-quinuclidine-3-spiro-5′-oxazolidine-2′,4′-dione trifluoroacetate salt]				62	70
Cc1ccc(N2C(=O)OC3(CN4CCC3CC4)C2=O)cc1 (centres unmarked) [Compound 2, 3′-(4-methylphenyl)-quinuclidine-3-spiro-5′-oxazolidine-2′,4′-dione trifluoroacetate salt]				44	74
O=C1OC2(CN3CCC2CC3)C(=O)N1c1ccccc1F (centres unmarked) [Compound 9, 3′-(2-fluorophenyl)-quinuclidine-3-spiro-5′-oxazolidine-2′,4′-dione trifluoroacetate salt]				100	16
